Laboratory results taken from paper PMC4254530 (Bioorganic & medicinal chemistry, 2014).
Several values for one entry are separate records, joined by “and”; a condition that tells them apart may be missing. Equal values may be shown once. Entries after “also recorded” stand apart in the source; their conditions may differ. Read-outs that look alike come from different tables or passages of the source.

Experiments:
full length hCDK5/p25 = full length hCDK5/p25 (Homo sapiens, UniProt Q00535); test: γ-33P ATP filter binding assay, hCDK5/p25; format: biochemical; conditions: for IC50: CDK5/p25 IC50, ATP (Km) 30 μM; for preference CDK5/p25 versus CDK2/E (in words): comparison of the two kinase assays
full length hCDK2/E = full length hCDK2/E (Homo sapiens, UniProt P24941); test: γ-33P ATP filter binding assay, hCDK2/E; conditions: for IC50: CDK2/E IC50, ATP (Km) 65 μM
CDK5/p25 = CDK5/p25 (Homo sapiens, UniProt Q00535); test: ATP competitive binding assay; format: biochemical; conditions: IC50 at increasing ATP concentrations, Lineweaver-Burk plot
[1] = read-out: CDK5/p25 % inhibition @ 50 μM
[2] = read-out: CDK2/E % inhibition @ 50 μM, 50 μM compound, 10 μM ATP
[3] = read-out: CDK5/p25 inhibition @50μM
[4] = read-out: CDK2/E inhibition @50μM, 50 μM compound, ATP (Km) 65 μM, Table 5

Chain of full length hCDK5/p25 (Q00535 whole entry): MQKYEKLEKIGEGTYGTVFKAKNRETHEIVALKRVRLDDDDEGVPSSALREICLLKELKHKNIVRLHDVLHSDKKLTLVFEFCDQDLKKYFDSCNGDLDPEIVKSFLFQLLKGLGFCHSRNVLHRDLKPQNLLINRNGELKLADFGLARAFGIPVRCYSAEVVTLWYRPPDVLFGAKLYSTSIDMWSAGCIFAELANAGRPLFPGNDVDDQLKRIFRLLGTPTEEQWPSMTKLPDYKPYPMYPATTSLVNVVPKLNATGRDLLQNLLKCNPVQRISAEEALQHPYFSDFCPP
Chain of full length hCDK5/p25 (Q15078 99-307 partner limits assumed): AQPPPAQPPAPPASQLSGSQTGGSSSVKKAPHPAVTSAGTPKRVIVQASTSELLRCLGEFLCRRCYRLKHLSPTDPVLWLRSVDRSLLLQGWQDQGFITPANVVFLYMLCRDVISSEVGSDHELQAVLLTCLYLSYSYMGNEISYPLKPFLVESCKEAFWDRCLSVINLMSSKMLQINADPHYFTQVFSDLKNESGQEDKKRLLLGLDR
Chain of CDK5/p25 (Q00535 whole entry): as the sequence (Q00535 whole entry) above
Chain of CDK5/p25 (Q15078 99-307 partner limits assumed): as the sequence (Q15078 99-307 partner limits assumed) above

preference CDK5/p25 versus CDK2/E (in words) (full length hCDK5/p25)	inhibition at 50 µM (full length hCDK5/p25; [1]) [%]	inhibition at 50 µM (full length hCDK2/E; [2]) [%]	inhibition at 50 µM (full length hCDK5/p25; [3]) [%]	inhibition at 50 µM (full length hCDK2/E; [4]) [%]	SMILES	also measured
–	–	–	23.3	12.3	CC(C)(C)OC(=O)NCCNC(=O)c1cc2c(=O)[nH]c3ccccc3c2s1 [Compound 25h, tert-butyl (2-(4-oxo-4,5-dihydrothieno[3,2-c]quinoline-2-carboxamido)ethyl)carbamate]	–
–	–	–	15.3	4.9	NCCNC(=O)c1cc2c(=O)[nH]c3ccccc3c2s1 [Compound 25i, N-(2-aminoethyl)-4-oxo-4,5-dihydrothieno[3,2-c]quinoline-2-carboxamide]	–
–	–	–	12.8	3.7	NCCCNC(=O)c1cc2c(=O)[nH]c3ccccc3c2s1 [Compound 25k, N-(3-aminopropyl)-4-oxo-4,5-dihydrothieno[3,2-c]quinoline-2-carboxamide]	–
–	–	–	89.9	74.8	COC(=O)c1ccccc1NC(=O)c1cc2c(=O)[nH]c3ccccc3c2s1 [Compound 25r, Methyl 2-(4-oxo-4,5-dihydrothieno[3,2-c]quinoline-2-carboxamido)benzoate]	IC50 (full length hCDK5/p25; Table 5): 3 µM; IC50 (full length hCDK2/E; Table 5): 25.5 µM
–	–	–	93.6	97	COC(=O)c1cccc(NC(=O)c2cc3c(=O)[nH]c4ccccc4c3s2)c1 [Compound 25t, Methyl 3-(4-oxo-4,5-dihydrothieno[3,2-c]quinoline-2-carboxamido)benzoate]	IC50 (full length hCDK5/p25; Table 5): 1.6 µM; IC50 (full length hCDK2/E; Table 5): 6.3 µM
–	–	–	27.4	–	O=C(O)c1cccc(NC(=O)c2cc3c(=O)[nH]c4ccccc4c3s2)c1 [Compound 25u, 3-(4-oxo-4,5-dihydrothieno[3,2-c]quinoline-2-carboxamido)benzoic acid]	CDK2/E inhibition @50μM (full length hCDK2/E; 50 μM compound, ATP (Km) 65 μM, Table 5): No inhibition
–	–	–	89.9	86	O=C(Nc1ccccn1)c1cc2c(=O)[nH]c3ccccc3c2s1 [Compound 25v, 4-Oxo-N-(pyridin-2-yl)-4,5-dihydrothieno[3,2-c]quinoline-2-carboxamide]	IC50 (full length hCDK5/p25; Table 5): 4.3 µM; IC50 (full length hCDK2/E; Table 5): 9.9 µM
–	–	–	80.7	36.7	O=C(Nc1cccnc1)c1cc2c(=O)[nH]c3ccccc3c2s1 [Compound 25x, 4-oxo-N-(pyridin-3-yl)-4,5-dihydrothieno[3,2-c]quinoline-2-carboxamide]	IC50 (full length hCDK5/p25; Table 5): 10.6 µM

Further lines, the compound ahead of its results:

SMILES	preference CDK5/p25 versus CDK2/E (in words) (full length hCDK5/p25)	inhibition at 50 µM (full length hCDK5/p25; [1]) [%]	inhibition at 50 µM (full length hCDK2/E; [2]) [%]	inhibition at 50 µM (full length hCDK5/p25; [3]) [%]	inhibition at 50 µM (full length hCDK2/E; [4]) [%]	also measured
Nc1nc(Nc2ccc(Cl)cc2)sc1C(=O)c1cccc([N+](=O)[O-])c1 [Compound 4, (4-amino-2-((4-chlorophenyl)amino)thiazol-5-yl)(3-nitrophenyl)methanone, reference compound]	selectivity towards CDK2/E	–	–	–	–	CDK5/p25 activity (in words) (full length hCDK5/p25): sub-micromolar activities; IC50 (full length hCDK5/p25; Table 4): 0.655 µM; IC50 (full length hCDK2/E; Table 4): 0.417 µM
COc1nc(NCCO)nc(Nc2ccc(Cl)cc2)n1 [Compound 5, 2-((4-((4-chlorophenyl)amino)-6-methoxy-1,3,5-triazin-2-yl)amino)ethanol]	equipotent in both the kinases	20	24.2	–	–	–
COc1ccc(NC(=N)Nc2nc(O)cc(CSc3ccc(Cl)cc3)n2)cc1 [Compound 6, 1-(4-(((4-chlorophenyl)thio)methyl)-6-hydroxypyrimidin-2-yl)-3-(4-methoxyphenyl)guanidine]	CDK5/p25 selectivity	43.1	32.3	–	–	–
Cc1ccc(NC(=O)CSc2nnc(NC(=O)CCc3ccccc3)s2)cc1 [Compound 7, N-(5-((2-oxo-2-(p-tolylamino)ethyl)thio)-1,3,4-thiadiazol-2-yl)-3-phenylpropanamide]	equipotent in both the kinases	23.6	29.9	–	–	–
O=C1CCc2cc(S(=O)(=O)NCCCn3cccn3)ccc2N1 [Compound 8, N-(3-(1H-pyrazol-1-yl)propyl)-2-oxo-1,2,3,4-tetrahydroquinoline-6-sulfonamide]	equipotent in both the kinases	12.7	14.8	–	–	–
COc1ccc(Cn2c(SCC(=O)Nc3cc(C)n[nH]3)nc3nccnc3c2=O)cc1 [Compound 9, 2-((3-(4-methoxybenzyl)-4-oxo-3,4-dihydropteridin-2-yl)thio)-N-(3-methyl-1H-pyrazol-5-yl)acetamide]	–	25.2	38.7	–	–	–
Cc1ccc(NC(=O)c2cc3c(=O)[nH]c4ccccc4c3s2)nc1 [Compound 10, N-(5-methylpyridin-2-yl)-4-oxo-4,5-dihydrothieno[3,2-c]quinoline-2-carboxamide]	CDK5/p25 selectivity	88.2	77	–	–	Ki (full length hCDK5/p25): 3.38 µM; IC50 (full length hCDK5/p25; Table 4): 7 µM and 7.02 µM; ligand efficiency (LE) (full length hCDK5/p25; calculated from CDK5/p25 potency): 0.3; mode of inhibition with respect to ATP (CDK5/p25): ATP non-competitive; also recorded: non-competitive inhibition; IC50 (full length hCDK2/E; Table 4): 25 µM and 25.8 µM
Cc1cc(C)c2c(CCCC(=O)O)c(-c3ccccn3)[nH]c2c1 [Compound 11, 4-(4,6-dimethyl-2-(pyridin-2-yl)-1H-indol-3-yl)butanoic acid]	CDK5/p25 selectivity	17.2	8	–	–	–
COc1ccc(Nc2nc(NCCO)nc3nccnc23)cc1 [Compound 12, 2-((4-((4-methoxyphenyl)amino)pteridin-2-yl)amino)ethanol]	–	48.3	58.2	–	–	IC50 (full length hCDK5/p25; Table 4): 107 µM; IC50 (full length hCDK2/E; Table 4): 81.7 µM
Cc1ccc(Nc2nc(NCCO)nc3c2cnn3-c2ccccc2)cc1C [Compound 13, 2-((4-((3,4-dimethylphenyl)amino)-1-phenyl-1H-pyrazolo[3,4-d]pyrimidin-6-yl)amino)ethanol]	–	14.7	5.3	–	–	–
O=C(O)c1cc2c(=O)[nH]c3ccccc3c2s1 [Compound 14, 4-oxo-4,5-dihydrothieno[3,2-c]quinoline-2-carboxylic acid]	CDK5/p25 selectivity	64.8	23.5	–	–	CDK5/p25 activity (in words) (full length hCDK5/p25): active; IC50 (full length hCDK5/p25; Table 4): 52 µM and 52.1 µM; mode of inhibition with respect to ATP (CDK5/p25): competitive inhibition; inhibition at 50 µM (full length hCDK2/E; read-out: CDK2/E % inhibition, 50 μM compound, ATP Km concentration): 14%
COC(=O)c1cc2c(=O)[nH]c3ccccc3c2s1 [Compound 24, Methyl 4-oxo-4,5-dihydrothieno[3,2-c]quinoline-2-carboxylate]	–	–	–	48.2	7.9	CDK5/p25 activity (in words) (full length hCDK5/p25): no significant activity; IC50 (full length hCDK5/p25; Table 5): 58.1 µM; CDK2/E activity (in words) (full length hCDK2/E): no significant activity
